According to patent US8716250B2, “Diazoxide for the treatment of Friedreich's ataxia” (Universita' Degli Studi di Bari, priority 2008, dated 2014):
“Also recorded” adds a separate entry of the source.

Assays:
[1] = test system: frataxin; test: Quantitative real-time RT-PCR of frataxin expression in HEK 293 cells; assay type: cell-based, human
Description: The human cell line HEK 293 (Human Embryonic Kidney) grown in Dulbecco's modified Eagle's medium (DMEM, Sigma) with the addition of 10% foetal bovine serum (FBS) (v/v), glutamine 2 mM, penicillin 100 unit/ml and streptomycin 100 μg/ml is kept in an incubator at a temperature of 37° C. and 5% CO2. Preferably the HEK 293 cells, cultured on 60 mm plates at a concentration of 0.5×10^6, after at least 14 hours of growth have a 70-80% confluence. […] Extraction of the RNA from the cells is performed according to the indications contained in the QIAconnect Gene Expression (Qiagen) kit. Particularly the samples are lysed and homogenated. Ethanol is then added to the treated samples to provide ideal conditions for the bond with the silica-gel RNase membrane. In this way the RNA binds and the contaminants are washed; the pure RNA is concentrated and eluted. The concentration of the extracted RNA is determined by UV spectrophotometric method under suitable reading conditions. The reverse transcription reaction is performed with the GeneAmp RNA PCR core (Applied Biosystems) kit according to the indications provided by the manufacturer. Quantification of the reverse-transcribed product is performed using fluorescent probes capable of hybridizing and specifically pairing DNA regions of interest. The probes used according to the invention are Probe Hs 00175940_m1 and Probe Hs 99999903 ml (Applied Biosystems). Particularly the probe defined Hs 00175940_m1 represents the specific probe able to recognise and hybridize the human frataxin gene, while the probe Hs 99999903 ml recognises the human actin and is useful for normalising the mRNA values of the target. The analyzing step of the results is performed by substituting the mathematical formula 2^−ΔΔCt with the difference between the target threshold cycle in the samples treated and not treated (control) with diazoxide, normalised with the threshold cycle value of the reference gene (actin), in the case in question ΔCt=Ct Hs00175940—m1−Ct Hs99999903—m1. ΔΔCt=ΔCt(treated sample)−ΔCt(control sample) The result of the calculation 2^−ΔΔCt represents the relative quantification value. Said value permits determination of the quantity of frataxin (which represents the target) in the sample treated with diazoxide with respect to the quantity of frataxin in the sample not treated with diazoxide (which represents the control) normalised for the quantity of actin (which represents the reference or internal standard) in the same sample. For example a value of 1 is attributed to the control samples, i.e. HEK 293 cells not treated with diazoxide chosen as references.

[2] = test system: frataxin; test: Western blot analysis of frataxin in HEK 293 cells; assay type: cell-based, human; details: for frataxin expression, western blot: 4 or 5 days after the initial treatment
Description: The human cell line HEK 293 (Human Embryonic Kidney) grown in Dulbecco's modified Eagle's medium (DMEM, Sigma) with the addition of 10% foetal bovine serum (FBS) (v/v), glutamine 2 mM, penicillin 100 unit/ml and streptomycin 100 μg/ml is kept in an incubator at a temperature of 37° C. and 5% CO2. Preferably the HEK 293 cells, cultured on 60 mm plates at a concentration of 0.5×10^6, after at least 14 hours of growth have a 70-80% confluence. […] The cells treated as described in example 1 are lysed with a lysis buffer (0.15 M NaCl, 5 mM EDTA, pH 8, 1% Triton X100, 10 mM Tris-Cl, pH 7.4) and transferred to microcentrifuge tubes. A quantity of approximately 50 μg of cell suspension is separated by electrophoresis in the presence of SDS (sodium dodecyl sulphate) at 17% (denaturing conditions). The resulting product is transferred onto nitrocellulose membranes. Identification of the presence of the target protein, i.e. the frataxin, is performed with a rabbit polyclonal primary antibody directed against said protein (Santa Cruz Biotechnology), and a goat-anti rabbit HRP secondary antibody (Pierce). The reaction was identified with enzymatic method by means of ECL plus system (Amersham).

[3] = test system: frataxin; test: Quantitative real-time RT-PCR of frataxin expression in immortalized lymphoblastoid cell lines of FRDA patients; assay type: cell-based, human; details: FRDA patient lymphoblastoid cells, 24 hours
Description: Extraction of the RNA from the cells is performed according to the indications contained in the QIAconnect Gene Expression (Qiagen) kit. Particularly the samples are lysed and homogenated. Ethanol is then added to the treated samples to provide ideal conditions for the bond with the silica-gel RNase membrane. In this way the RNA binds and the contaminants are washed; the pure RNA is concentrated and eluted. The concentration of the extracted RNA is determined by UV spectrophotometric method under suitable reading conditions. The reverse transcription reaction is performed with the GeneAmp RNA PCR core (Applied Biosystems) kit according to the indications provided by the manufacturer. Quantification of the reverse-transcribed product is performed using fluorescent probes capable of hybridizing and specifically pairing DNA regions of interest. The probes used according to the invention are Probe Hs 00175940_m1 and Probe Hs 99999903 ml (Applied Biosystems). Particularly the probe defined Hs 00175940_m1 represents the specific probe able to recognise and hybridize the human frataxin gene, while the probe Hs 99999903 ml recognises the human actin and is useful for normalising the mRNA values of the target. The analyzing step of the results is performed by substituting the mathematical formula 2^−ΔΔCt with the difference between the target threshold cycle in the samples treated and not treated (control) with diazoxide, normalised with the threshold cycle value of the reference gene (actin), in the case in question ΔCt=Ct Hs00175940—m1−Ct Hs99999903—m1. ΔΔCt=ΔCt(treated sample)−ΔCt(control sample) The result of the calculation 2^−ΔΔCt represents the relative quantification value. Said value permits determination of the quantity of frataxin (which represents the target) in the sample treated with diazoxide with respect to the quantity of frataxin in the sample not treated with diazoxide (which represents the control) normalised for the quantity of actin (which represents the reference or internal standard) in the same sample. The expression level and therefore the quantity of frataxin of cells deriving from immortalized lymphoblastoid cell lines of FRDA patients treated as described in examples 2 and 3 was compared 24 hours after the treatment. […] In particular, the broken vertical line represents the threshold value above which the increase in frataxin expression can be seen. The experiment was conducted testing the cells with concentrations of diazoxide varying from 25 nM to 100 μM in combination with fixed concentrations of glucose 20 mM. The expression and therefore the quantity of frataxin in cells deriving from immortalized lymphoblastoid cell lines of FRDA patients was compared.

[4] = test system: frataxin; test: Western blot analysis of frataxin in cells of FRDA patients; assay type: cell-based, human; details: FRDA patient cells, 24 hours after the initial treatment
Description: The cells treated as described in example 1 are lysed with a lysis buffer (0.15 M NaCl, 5 mM EDTA, pH 8, 1% Triton X100, 10 mM Tris-Cl, pH 7.4) and transferred to microcentrifuge tubes. A quantity of approximately 50 μg of cell suspension is separated by electrophoresis in the presence of SDS (sodium dodecyl sulphate) at 17% (denaturing conditions). The resulting product is transferred onto nitrocellulose membranes. Identification of the presence of the target protein, i.e. the frataxin, is performed with a rabbit polyclonal primary antibody directed against said protein (Santa Cruz Biotechnology), and a goat-anti rabbit HRP secondary antibody (Pierce). The reaction was identified with enzymatic method by means of ECL plus system (Amersham). […] It can be seen that the cells of the patients treated according to the invention present an evident band as expression of the quantity of frataxin present with respect to the non-treated control.

[5] = children treated with ibedenone; cited from earlier work
[6] = diazoxide in combination with glucose
[7] = diazoxide in combination with leucine

SMILES: CC(C)C[C@H](N)C(=O)O [leucine]
- frataxin expression levels, deviation with respect to the non-treated control ([1]; HEK 293, leucine only 10 mM, 24 hours): minimum deviation with respect to the non-treated control

SMILES: CC1=NS(=O)(=O)c2cc(Cl)ccc2N1 [diazoxide, 7-chloro-3-methyl-4H-1,2,4 benzothiadiazine 1,1-dioxide]
- frataxin expression levels, deviation from the threshold line ([1]; HEK 293, diazoxide 100 μM combined with leucine 10 mM, 24 hours): significant deviation from the threshold line
- increase in the quantity of frataxin with respect to the non-treated control over time ([1]; HEK 293, diazoxide 100 μM together with glucose 20 mM, 48 and 72 hours after the treatment): remains constant
- quantity of frataxin / frataxin expression with respect to the non-treated control ([1]; HEK 293, diazoxide 100 μM with glucose 20 mM, 24 hours): increased quantity of frataxin; also recorded: significant deviation from the threshold line
- frataxin expression levels, deviation from the threshold line ([1]; HEK 293, diazoxide only (25 nM or 100 μM without glucose), 24 hours): minimum deviation from the threshold line
- frataxin quantity (band intensity) versus control cells ([2]; HEK 293, cells treated as in example 1 (diazoxide 100 μM with glucose 20 mM, 24 hours)): greater than that of the control cells
- frataxin expression, western blot [2, 6]: maintain the increase in expression
- frataxin expression, western blot [2, 7]: maintain the increase in expression
- frataxin expression levels, deviation from the threshold line ([3]; diazoxide 100 μM combined with glucose 20 mM): significant deviation from the threshold line
- effect on frataxin expression of the combination [3, 6]: synergic effect
- effect on frataxin expression of the combination [3, 7]: synergic effect
- frataxin expression levels, deviation from the threshold line ([3]; some particular concentrations of diazoxide (25 nM to 100 μM tested) with glucose 20 mM): minimum deviation from the threshold line
- frataxin expression, western blot, with respect to the non-treated control [4, 6]: maintain the increase in expression
- frataxin expression, western blot, with respect to the non-treated control [4, 7]: maintain the increase in expression

SMILES: COC1=C(OC)C(=O)C(CCCCCCCCCCO)=C(C)C1=O [ibedenone]
- benefits at neurological level [5]: practically nil
- children treated presenting an improvement in some of the symptoms [5]: 85%
